Laboratory results taken from ChEMBL document CHEMBL1147855, “Synthesis and evaluation of sulfonylurea derivatives as novel antimalarials” (Eur J Med Chem, 2007).

Columns and labels:
[1] = tested on: Plasmodium falciparum; experiment: Antimalarial activity against chloroquine-resistant Plasmodium falciparum W2 after 48 hrs by FACS; assay type: functional, organism-based; details: W2, 48 h
[2] = Inhibition of hemoglobin hydrolysis in mouse erythrocytes at 5 mM after 18 hrs relative to control; assay type: cell-based; details: Erythrocyte
[3] = tested on: Plasmodium berghei; experiment: Antimalarial activity against Plasmodium berghei ANKA at 20 mg/kg intraperitoneal dose as reduced parasitaemia by Peter's assay; assay type: functional; parameters: scale not given: the % may be the effect or the level left
[4] = tested on: Mus musculus; experiment: Survival of NIH mice (Mus musculus) infected with Plasmodium berghei ANKA infected erythrocytes at 20 mg/kg, intraperitoneal after 4 days by Peter's test; assay type: functional

Structure (SMILES) | IC50 [1] [µM] | inhibition at 5000 µM [2] [%] | Activity [3] [%] | Survival [4] [days]
Cc1ccc(S(=O)(=O)NC(=O)Nc2ccc(C(=O)/C=C/c3ccc4c(c3)OCO4)cc2)cc1 | 9.6 |  |  | 
COc1cc2cc(/C=C/C(=O)c3ccc(NC(=O)NS(=O)(=O)c4ccc(C)cc4)cc3)c(Cl)nc2cc1OC | 10 |  |  | 
O=C(Nc1ccc(C(=O)/C=C/c2ccc3c(c2)OCO3)cc1)NS(=O)(=O)c1ccc(Cl)cc1 | 9.7 | 50.6 | 3.4 | 2.16
CC(=O)N[C@@H](CC(C)C)C(=O)N[C@@H](CC(C)C)C(=O)N[C@H](C=O)CCCNC(=N)N [LEUPEPTIN] |  | 87 |  | 
O=C(Nc1ccc(C(=O)/C=C/c2ccc(F)cc2F)cc1)NS(=O)(=O)c1ccc(Cl)cc1 | 2.1 |  | 5.2 | 3
CCN(CC)CCCC(C)Nc1ccnc2cc(Cl)ccc12 (configuration not stated) [CHLOROQUINE] |  |  | 3.66 | 
CC(C)CC(=O)N[C@H](C(=O)N[C@H](C(=O)N[C@@H](CC(C)C)[C@@H](O)CC(=O)N[C@@H](C)C(=O)N[C@@H](CC(C)C)[C@@H](O)CC(=O)O)C(C)C)C(C)C [PEPSTATIN] |  | 91.9 |  | 
COc1cc(/C=C/C(=O)c2ccc(NC(=O)NS(=O)(=O)c3ccc(Cl)cc3)cc2)cc(OC)c1OC | 9.4 | 36.7 | 8 | 1.83
Cc1ccc(S(=O)(=O)NC(=O)Nc2ccc(C(=O)/C=C/c3ccc(F)cc3F)cc2)cc1 | 1.2 | 90.3 | 15.2 | 1
Cc1ccc(S(=O)(=O)NC(=O)Nc2ccc(C(=O)/C=C/c3ccc(F)cc3)cc2)cc1 | 10 |  |  | 
COc1cc(/C=C/C(=O)c2ccc(NC(=O)NS(=O)(=O)c3ccc(C)cc3)cc2)cc(OC)c1OC | 8.8 |  |  | 
O=C(Nc1ccc(C(=O)/C=C/c2ccc(F)cc2)cc1)NS(=O)(=O)c1ccc(Cl)cc1 | 10 | 34.5 | 10.6 | 1
Cc1ccc(S(=O)(=O)NC(=O)Nc2ccc(C(=O)/C=C/c3cc4ccccc4nc3Cl)cc2)cc1 | 9.6 |  |  | 
